Read-outs that look alike come from different tables or passages of the source.
Legend:
[1] = system: INS-1 insulinoma cells; assay: Gene profiling and Q-PCR of cAMP inducible genes in INS-1 cells; format: cell-based, rat; conditions: INS-1 cells exposed to FSK
Description: (§1) INS-1 insulinoma cells were cultured in RPMI 1640 (Mediatech) with 10% heat inactivated fetal bovine serum (Sigma), 2 mM glutamine (Mediatech), 1 mM sodium pyruvate (Mediatech), 100 μg/ml penicillin-streptomycin (Mediatech) and 0.05 mM β-mercaptoethanol. HEK 293T cells were cultured in DMEM (Mediatech) with 10% fetal bovine serum and 100 μg/ml penicillin-streptomycin. Forskolin (10 μM), LY294002 (50 μM), and DMOG (1 mM) were added to cells as indicated. Cells were exposed to rapamycin (50 nM) or to cycloheximide (100 μg/ml) overnight. For glucose and Exendin-4 treatments, INS-1 cells were glucose and serum starved for 1 hour, and stimulated with glucose or 2-deoxyglucose (20 mM) with or without Exendin-4 (10 nM). HEK 293T cells were transfected with polyethylenimine (PEI) and INS-1 cells with Lipofectamine2000 (Invitrogen; 11668-019). For HIF-1α translational reporter experiment, INS-1 cells were transfected with pLUXHIF1α5′UTR or pLUX control vector (generous gift of John Blenis). After 24 hours, cells were exposed to rapamycin overnight where indicated. After forskolin treatment, cells were harvested for Renilla/firefly luciferase activity. Normalized luciferase activities are shown.
Gene profiling experiments were performed on total RNA from INS-1 cells using an Affymetrix Rat Gene Array as previously described (Zhang et al., 2005).
mRNA levels were quantified by Q-PCR analysis as previously described (Dentin, 2007). Oligonucleotides were designed to target rat gene sequences.

[2] = cited from earlier work
[3] = system: HIF1α; assay: Immunoblot of HIF1α in INS-1 cells; format: cell-based, rat
Description: (§2) Immunoblot and immunoprecipitation: Immunoblots were performed as described (Dentin et al., 2008). For immunoprecipitations, cell lysates were incubated with primary antibody and 25 μl of a 50% slurry of protein G agarose beads for 4 hours with rotation at 4° C. Immunoprecipitates were washed with lysis buffer and denatured by boiling in 20 μl SDS sample buffer.
as §1, with “Normalized luciferase activities are shown.” left out

[4] = system: mTORC1; assay: Immunoblot of phospho-S6 in INS-1 cells; format: cell-based, rat; conditions: co-incubation of mTOR inhibitor with FSK
Description: as §2
as §1, with “After 24 hours, cells were exposed to rapamycin overnight where indicated. After forskolin treatment, cells were harvested for Renilla/firefly luciferase activity. Normalized luciferase activities are shown.” left out

[5] = system: INS-1 cells; assay: Cell size determination in INS-1 cells; format: cell-based, rat; conditions: co-incubation with FSK
Description: For cell size measurements, INS-1 cells were plated on 6 cm dishes, treated as indicated, trypsinized and resuspended in PBS. Cell diameter was measured using a particle size counter.

[6] = system: hypoxia-inducible factor (HIF); assay: HRE-luc reporter transient assay in INS-1 cells; format: cell-based, rat
Description: as §1
Plasmids expressing cDNAs for HA-HIF-1α P402A/P564A (18955) were purchased from Addgene. HRE-LUC reporter construct was generously provided by Randall Johnson (UCSD).

[7] = system: HIF1α; assay: Immunoblot of HIF1α in primary hepatocytes; format: cell-based; conditions: cultured primary hepatocytes
[8] = system: HIF; assay: HRE-luc reporter in primary hepatocytes; format: cell-based; conditions: cultured primary hepatocytes
Source text: Plasmids expressing cDNAs for HA-HIF-1α […]/P564A (18955) were purchased from Addgene. HRE-LUC reporter construct was generously provided by Randall Johnson (UCSD).

[9] = molecular target: human GLP-1 receptor (Homo sapiens, UniProt P43220); conditions: greater affinity than native GLP-1; cited from earlier work
[10] = mildly hyperglycaemic patients with Type 2 diabetes on metformin; cited from earlier work
[11] = plus protein synthesis inhibitor
[12] = prolonged exposure, particularly under high glucose (20 mM)

human GLP-1 receptor, sequence (P43220 24-463): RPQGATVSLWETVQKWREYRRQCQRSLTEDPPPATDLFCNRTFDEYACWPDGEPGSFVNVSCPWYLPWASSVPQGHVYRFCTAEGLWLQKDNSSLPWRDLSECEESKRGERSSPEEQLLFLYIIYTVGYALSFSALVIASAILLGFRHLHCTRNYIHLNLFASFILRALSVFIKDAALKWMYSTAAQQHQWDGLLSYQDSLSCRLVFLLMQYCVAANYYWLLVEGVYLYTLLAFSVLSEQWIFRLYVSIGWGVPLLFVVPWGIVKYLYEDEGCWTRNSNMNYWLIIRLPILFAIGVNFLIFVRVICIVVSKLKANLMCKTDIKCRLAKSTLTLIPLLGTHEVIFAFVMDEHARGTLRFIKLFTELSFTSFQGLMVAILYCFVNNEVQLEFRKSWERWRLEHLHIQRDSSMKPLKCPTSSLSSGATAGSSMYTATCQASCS

C[C@@H]1C[C@@H]([C@H](O)CC2CC(=O)NC(=O)C2)C(=O)[C@@H](C)C1 [cycloheximide]
expression of CREB target genes [1, 11]: enhanced
expression of late phase genes like HMOX1 by FSK [1, 11]: reduced

Albiglutide
half-life ([2]; after administration): four to seven

CO[C@H]1C[C@@H]2CC[C@@H](C)[C@@](O)(O2)C(=O)C(=O)N2CCCC[C@H]2C(=O)O[C@H]([C@H](C)C[C@@H]2CC[C@@H](O)[C@H](OC)C2)CC(=O)[C@H](C)/C=C(\C)[C@@H](O)[C@@H](OC)C(=O)[C@H](C)C[C@H](C)/C=C/C=C/C=C/1C [rapamycin]
induction of CREB target genes such as NR4A2 ([1]; plus rapamycin): no effect

CC(C)n1nc(-c2cc3cc(O)ccc3[nH]2)c2c(N)ncnc21 [PP242]
effects of FSK on HIF1α induction ([3]; co-incubation of mTOR inhibitor with FSK): blocked
effects of FSK on S6 phosphorylation [4]: blocked
effects of FSK on cell size [5]: blocked

O=S(=O)(NCCNC/C=C/c1ccc(Br)cc1)c1cccc2cnccc12 [H89]
induction of the HRE-luc reporter by FSK ([6]; co-incubation with inhibitor): blocked
induction of the HRE-luc reporter by IBMX ([6]; co-incubation with inhibitor): blocked

C=C[C@@]1(C)CC(=O)[C@]2(O)[C@@]3(C)[C@@H](O)CCC(C)(C)[C@@H]3[C@H](O)[C@H](OC(C)=O)[C@@]2(C)O1 [FSK, Forskolin]
HIF1α accumulation [7]: no effect
HRE-luc reporter activation [8]: no effect

COC(=O)CNC(=O)C(=O)OC [DMOG, Dimethyloxalyl Glycine]
HIF1α protein levels ([3]; agent alone): increased
HIF1α accumulation [7]: triggered
HRE-luc reporter activation [8]: triggered

CC(C)Cn1c(=O)n(C)c(=O)c2[nH]cnc21 [IBMX]
HRE-luc reporter activity ([6]; time not stated): increased

Exendin-4: GLP-1 agonist
HRE-luc reporter activity [6, 12]: increased
HIF1α protein accumulation [3, 12]: increased

Lixisenatide
half-life ([2]; in vivo): 2.5 to 4 h
affinity for the human GLP-1 receptor compared with native GLP-1 [9]: approximately 4 fold
glycaemic control [10]: significantly improve
